Measurements: patent publication US20060194883A1, “Mmp expression inhibitor” (EISAI CO., LTD, priority 2003, published 2006)

Assays:
p16 = test: CDK inhibitor expression by RT-PCR in hepatic cancer cells; assay type: cell-based; settings: 10^−6 to 10^−4 M
Description: To investigate the mechanism of inhibition of cell proliferation, genes involved in promoting the cell cycle were focused on, and changes caused by addition of menatetrenone in the amount of expression of CDK inhibitors p21, p27 and p16 which inhibit cyclin dependent kinase (CDK), an enzyme which promotes the cell cycle, were analyzed by the RT-PCR and Western blot methods. In this test, menatetrenone was added at concentrations of 0 M, 10^−6 M, 10^−5 M and 10^−4 M to HepG2, Huh7, Hep3B and HLE hepatic cancer cell lines, RNA was collected after 48 hours, and 1 μg of total RNA was subjected to RT-PCR to investigate expression of p21, p27 and p16. RT-PCR was performed on GAPDH (glyceraldehyde 3-phosphate dehydrogenase) as a control.

Tcf/Lef = test: gel shift assay of transcription factor binding activity; assay type: cell-based; settings: HepG2 nuclear proteins after 24 hours; 32P-labeled DNA probe
Description: (§1) MMP have binding sites for transcription factors AP-1, Ets-1, Tcf/Lef and the like at common to their promoter regions and which are known to regulate MMP expression. Gel shift assay was performed to investigate whether the binding activity of transcription factors AP-1 and Tcf/Lef, which regulate MMP expression, is affected by addition of menatetrenone. In this test menatetrenone was added to HepG2 hepatic cancer cells, nuclear proteins were extracted after 24 hours and reacted with double-stranded DNA having binding sites for AP-1 and Tcf/Lef labeled with ^32P, and gel shift assay was performed. […] Reduction and shifting of the band was also seen with anti-c-fos antibodies (“S” in the Figure).

AP-1 = test: as above; assay type: cell-based; settings: HepG2 nuclear proteins after 24 hours; 32P-labeled DNA probe
Description: as §1

MMP-7 promoter = test: MMP gene promoter activity test (luciferase reporter); assay type: cell-based; settings: Huh7 cells, 48 hours
Description: (§2) Next, promoter reporter genes for MMP-1, MMP-3 and MMP-7 were introduced into Huh7 hepatic cancer cells, and the effect of menatetrenone on the activity of these MMP promoters was investigated. The MMP-1, MMP-3 and MMP-7 promoter-luciferase reporter plasmids used were prepared by replacing the reporter gene part of the MMP promoter-CAT reporter plasmid reported in Ozaki I, Mizuta T, Zhang H, Yoshimura T, Kawazoe S, Eguchi Y, Yasutake T, Hisatomi A, Sakai T and Yamamoto K, “Induction of multiple matrix metalloproteinase genes in human hepatocellular carcinoma by hepatocyte growth factor via a transcription factor Ets-1,” Hepatol. Res. 27, 288-300. The various MMP-luciferase plasmids were introduced into Huh7 hepatic cancer cells using lipofectamine, menatetrenone was added at various concentrations, and after 48 hours the cells were collected and luciferase activity measured to investigate the effects of menatetrenone on MMP-1, MMP-3 and MMP-7 gene promoter activity.

MMP-3 promoter = test: as above; assay type: cell-based; settings: Huh7 cells, 48 hours
Description: as §2

MMP-1 promoter = test: as above; assay type: cell-based; settings: Huh7 cells, 48 hours
Description: as §2

MMP-7 [1] = test: gene expression with TPA induction, RT-PCR; assay type: cell-based; settings: HepG2; 20 nM TPA then menatetrenone
Description: (§3) MMP and Ets-1, the expression of which is inhibited by menatetrenone, are known to be genes that are induced by 12-O-tetradecanoylphorbol-13-acetate (TPA) as well as uPA (urokinase plasminogen activator) and the like. In order to discover whether menatetrenone controls expression of genes activated by TPA, TPA was added to HepG2 cultured hepatic cancer cells at a concentration of 20 nM, menatetrenone was then added thereto, and RT-PCR and Western blot were performed to investigate whether expression of the aforementioned gene expression of which was induced by TPA was affected. […] On the other hand, the uPA receptor uPAR and the uPA inhibitor PAI were not affected.

MMP-3 [2] = test: gene expression with TPA induction, RT-PCR; assay type: cell-based; settings: HepG2; 20 nM TPA then menatetrenone
Description: as §3

MMP-1 [3] = test: gene expression with TPA induction, RT-PCR; assay type: cell-based; settings: HepG2; 20 nM TPA then menatetrenone
Description: as §3

Ets-1 = test: gene expression with TPA induction, RT-PCR; assay type: cell-based; settings: HepG2; 20 nM TPA then menatetrenone
Description: as §3

[4] = test system: uPA (urokinase plasminogen activator); test: gene expression with TPA induction, RT-PCR; assay type: cell-based; settings: HepG2; 20 nM TPA then menatetrenone
Description: as §3

[5] = cited from earlier work
[6] = test system: Hep3B hepatic cancer cell line; test: cell proliferation by WST assay; assay type: cell-based; settings: 10^−6 to 10^−4 M, 48 hours, vs control without menatetrenone
Description: (§4) Menatetrenone was added at concentrations of 0 M, 10^−6 M, 10^−5 M and 10^−4 M to HepG2, Huh7, Hep3B and HLE hepatic cancer cell lines, and cell proliferation was studied by WST assay after 48 hours.

[7] = test system: HLE hepatic cancer cell line; test: cell proliferation by WST assay; assay type: cell-based; settings: 10^−6 to 10^−4 M, 48 hours, vs control without menatetrenone
Description: as §4

[8] = test system: HepG2 hepatic cancer cell line; test: cell proliferation by WST assay; assay type: cell-based; settings: 10^−6 to 10^−4 M, 48 hours, vs control without menatetrenone
Description: as §4

[9] = test system: Huh7 hepatic cancer cell line; test: cell proliferation by WST assay; assay type: cell-based; settings: 10^−6 to 10^−4 M, 48 hours, vs control without menatetrenone
Description: as §4

MMP-7 [10] = test: RT-PCR of invasion-related factors in hepatic cancer cells; assay type: cell-based; settings: hepatic cancer cells (HepG2, Hep3B, Huh7)
Description: (§5) Test was performed by RT-PCR to investigate MMP expression. This test was to investigate expression of various MMPs (MMP-1, MMP-2, MMP-3, MMP-7, MMP-9 and MMP-14 (MT1-MMP)) and of transcription factor Ets-1 that affect MMP expression and the extracellular matrix receptor β1 integrin when menatetrenone was added to various hepatic cancer cells (HepG2, Hep3B, Huh7).

β1 integrin = test: as above; assay type: cell-based; settings: hepatic cancer cells (HepG2, Hep3B, Huh7)
Description: as §5

MMP-3 [11] = test: as above; assay type: cell-based; settings: hepatic cancer cells (HepG2, Hep3B, Huh7)
Description: as §5

MMP-1 [12] = test: as above; assay type: cell-based; settings: hepatic cancer cells (HepG2, Hep3B, Huh7)
Description: as §5

GAPDH = test: as above; assay type: cell-based; settings: hepatic cancer cells (HepG2, Hep3B, Huh7)
Description: as §5

[13] = test system: transcription factor Ets-1; test: as above; assay type: cell-based; settings: hepatic cancer cells (HepG2, Hep3B, Huh7)
Description: as §5

[14] = cited from earlier work; remark: listed apart in the source
MMP-3 [15] = test: gene expression with TPA induction, Western blot; assay type: cell-based; settings: HepG2, 20 nM TPA then menatetrenone
Description: as §3

MMP-1 [16] = test: gene expression with TPA induction, Western blot; assay type: cell-based; settings: HepG2, 20 nM TPA then menatetrenone
Description: as §3

SMILES: CC(C)=CCC/C(C)=C/CC/C(C)=C/CC/C(C)=C/CC1=C(C)C(=O)c2ccccc2C1=O [menatetrenone, 2-methyl-3-tetraprenyl-1,4-naphthoquinone]
- p16 expression (p16; Hep3B cells): slight increase
- p16 expression (p16; Huh7 cells): no changes
- binding activity of Tcf/Lef (Tcf/Lef): did not affect
- binding activity of AP-1 (AP-1): dose-dependently inhibited
- MMP-7 promoter activity (MMP-7 promoter): dose-dependently inhibited
- decrease of MMP-7 promoter activity (MMP-7 promoter): ~50%
- MMP-3 promoter activity (MMP-3 promoter): dose-dependently inhibited
- MMP-1 promoter activity (MMP-1 promoter): dose-dependently inhibited
- decrease of MMP-1 promoter activity (MMP-1 promoter): ~50%
- TPA-induced mRNA expression of MMP-7 (MMP-7 [1]): dose-dependently inhibited
- TPA-induced mRNA expression of MMP-3 (MMP-3 [2]): dose-dependently inhibited
- TPA-induced mRNA expression of MMP-1 (MMP-1 [3]): dose-dependently inhibited
- TPA-induced mRNA expression of Ets-1 (Ets-1): dose-dependently inhibited
- TPA-induced mRNA expression of uPA [4]: dose-dependently inhibited
- solubility in water [5]: dissolves very little
- cell proliferation [6]: dose-dependently inhibited
- cell proliferation [7]: dose-dependently inhibited
- cell proliferation [8]: dose-dependently inhibited
- cell proliferation [9]: dose-dependently inhibited
- expression of mRNA of MMP-7 (MMP-7 [10]): dose-dependently inhibited
- expression of β1 integrin mRNA (β1 integrin): no changes
- expression of mRNA of MMP-3 (MMP-3 [11]): dose-dependently inhibited
- expression of mRNA of MMP-1 (MMP-1 [12]): dose-dependently inhibited
- expression of GAPDH mRNA (GAPDH): no changes
- expression of the transcription factor Ets-1 [13]: dose-dependently inhibited
- stability to light [14]: easily decomposed by light
- TPA-induced expression of MMP-3 at the protein level (MMP-3 [15]): dose-dependently inhibited
- TPA-induced expression of MMP-1 at the protein level (MMP-1 [16]): dose-dependently inhibited
